21 compounds from patent US10227344B2, “CK2 inhibitors, compositions and methods thereof” (Polaris Pharmaceuticals, Inc., priority 2016, dated 2019) can be followed below.

The melting point is the temperature of the solid-liquid transition. The Ki is a measure of affinity in units of concentration, obtained from inhibition or displacement. Higher therefore signals weaker binding.

Structures can show the parent of a compound that is named as a salt.

The target of data set [1] is purified CK2α enzyme (Homo sapiens, UniProt P68400). Description: CK2 Protein Kinase Inhibition Assay (coupled PK/LDH assay). To be noted: CK2 enzyme 25 nM, 100 μM ATP, 37° C., Morrison equation. Type of data set: biochemical. The procedure, abridged: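 Purified CK2α at 25 nM final, 1.5 mM peptide substrate, 100 μM ATP, pH 8.25 Tris buffer; compounds pre-incubated 10 min at 37° C. ADP coupled via PK/LDH to NADH loss at 340 nm over 30 min, 37° C. Ki from rate versus concentration by Morrison equation, triplicate points.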
purified CK2α enzyme, sequence (P68400 whole entry): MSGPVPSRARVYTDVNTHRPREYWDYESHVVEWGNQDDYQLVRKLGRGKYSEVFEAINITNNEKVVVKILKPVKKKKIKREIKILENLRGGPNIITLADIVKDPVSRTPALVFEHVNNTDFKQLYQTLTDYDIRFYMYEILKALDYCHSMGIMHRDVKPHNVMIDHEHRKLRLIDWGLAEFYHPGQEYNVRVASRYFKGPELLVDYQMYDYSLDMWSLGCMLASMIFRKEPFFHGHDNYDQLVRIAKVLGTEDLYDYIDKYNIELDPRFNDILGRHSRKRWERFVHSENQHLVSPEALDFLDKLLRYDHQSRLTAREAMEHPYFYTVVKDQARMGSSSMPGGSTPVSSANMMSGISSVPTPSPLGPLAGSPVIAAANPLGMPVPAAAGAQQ

In turn, `CN(CCN)c1ccc(Nc2cc(NC3CC3)c3ncc(C#N)n3n2)cc1CS(C)(=O)=O` (as salt: trifluoroacetic acid salt) [Example 48, 6-((4-((2-aminoethyl)(methyl)amino)-3-((methylsulfonyl)methyl)phenyl)amino)-8-(cyclopropylamino)imidazo[1,2-b]pyridazine-3-carbonitrile mono trifluoroacetic acid salt] gave a melting point of 121 to 124 °C.
As to `CN(CCN)c1ccc(Nc2nc(NC3CC3)c3ncc(C#N)n3n2)cc1CS(C)(=O)=O` (as salt: trifluoroacetic acid salt) [Example 50, 2-((4-((2-aminoethyl)(methyl)amino)-3-((methylsulfonyl)methyl)phenyl)amino)-4-(cyclopropylamino)imidazo[2,1-f][1,2,4]triazine-7-carbonitrile mono trifluoroacetic acid salt], the melting point is 113 to 117 °C.
On the same count and under the same terms, the result for `CN(CCN)c1ccc(Nc2nc(NC3CC3)n3ncc(C#N)c3n2)cc1CS(C)(=O)=O` (as salt: trifluoroacetic acid salt) [Example 52, 2-((4-((2-aminoethyl)(methyl)amino)-3-((methylsulfonyl)methyl)phenyl)amino)-4-(cyclopropylamino)pyrazolo[1,5-a][1,3,5]triazine-8-carbonitrile mono trifluoroacetic acid salt] reads 55 to 59 °C.
Regarding `CN(CC1(N)CC1)c1ccc(Nc2cc(NC3CC3)n3ncc(C#N)c3n2)cc1CS(C)(=O)=O` (as salt: trifluoroacetic acid salt) [Example 66, 5-((4-(((1-aminocyclopropyl)methyl)(methyl)amino)-3-((methylsulfonyl)methyl)phenyl)amino)-7-(cyclopropylamino)pyrazolo[1,5-a]pyrimidine-3-carbonitrile mono trifluoroacetic acid salt], the melting point fell in the range of 185 to 189 °C.
On the same count and under the same terms, the same measure for `CN(CCN)c1ccc(Nc2cc(NC3CC3)c3ncc(C#N)n3n2)cc1C[S+](C)[O-]` (racemic) (as salt: trifluoroacetic acid salt) [Example 47, (±)-6-((4-((2-Aminoethyl)(methyl)amino)-3-((methylsulfinyl)methyl)phenyl)amino)-8-(cyclopropylamino)imidazo[1,2-b]pyridazine-3-carbonitrile mono trifluoroacetic acid salt]: 91 to 94 °C; for `CN(CCN)c1ccc(Nc2nc(NC3CC3)c3ncc(C#N)n3n2)cc1C[S+](C)[O-]` (racemic) (as salt: trifluoroacetic acid salt) [Example 49, (±)-2-((4-((2-aminoethyl)(methyl)amino)-3-((methylsulfinyl)methyl)phenyl)amino)-4-(cyclopropylamino)imidazo[2,1-f][1,2,4]triazine-7-carbonitrile mono trifluoroacetic acid salt]: 93 to 97 °C.
On the same count and under the same terms, the result for `CN(CCN)c1ccc(Nc2nc(NC3CC3)n3ncc(C#N)c3n2)cc1C[S+](C)[O-]` (racemic) (as salt: trifluoroacetic acid salt) [Example 51, (±)-2-((4-((2-aminoethyl)(methyl)amino)-3-((methylsulfinyl)methyl)phenyl)amino)-4-(cyclopropylamino)pyrazolo[1,5-a][1,3,5]triazine-8-carbonitrile mono trifluoroacetic acid salt] reads 78 to 82 °C; that for `CC(N)c1ccc(Nc2cc(NC3CC3)n3ncc(C#N)c3n2)cc1C[S+](C)[O-]` (racemic) (as salt: trifluoroacetic acid salt) [Example 58, (±)-5-((4-((R,S)-1-Aminoethyl)-3-((methylsulfinyl)methyl)phenyl)amino)-7-(cyclopropylamino)pyrazolo[1,5-a]pyrimidine-3-carbonitrile mono trifluoroacetic acid salt], 161 to 165 °C.
Compound `C[S+]([O-])Cc1cc(Nc2cc(NC3CC3)n3ncc(C#N)c3n2)ccc1C1(N)CC1` (racemic) (as salt: trifluoroacetic acid salt) [Example 59, (±)-5-((4-(1-Aminocyclopropyl)-3-((methylsulfinyl)methyl)phenyl)amino)-7-(cyclopropylamino)pyrazolo[1,5-a]pyrimidine-3-carbonitrile mono trifluoroacetic acid salt] showed a melting point of 185 to 189 °C.
Same read-out and setting: the same measure for `C/C(=C\CN)c1ccc(Nc2cc(NC3CC3)n3ncc(C#N)c3n2)cc1C[S+](C)[O-]` (racemic) (as salt: trifluoroacetic acid salt) [Example 60, (±)-(E)-5-((4-(4-aminobut-2-en-2-yl)-3-((methylsulfinyl)methyl)phenyl)amino)-7-(cyclopropylamino)pyrazolo[1,5-a]pyrimidine-3-carbonitrile mono trifluoroacetic acid salt]: 249 to 253 °C; for `C[S+]([O-])Cc1cc(Nc2cc(NC3CC3)n3ncc(C#N)c3n2)ccc1C1CCCNC1` (racemic) (as salt: trifluoroacetic acid salt) [Example 61, (±)-7-(Cyclopropylamino)-5-((3-((methylsulfinyl)methyl)-4-((R,S)-piperidin-3-yl)phenyl)amino)pyrazolo[1,5-a]pyrimidine-3-carbonitrile mono trifluoroacetic acid salt]: 55 to 59 °C; for `C[S+]([O-])Cc1cc(Nc2cc(NC3CC3)n3ncc(C#N)c3n2)ccc1C1=CCNC1` (racemic) (as salt: trifluoroacetic acid salt) [Example 62, (±)-7-(Cyclopropylamino)-5-((4-(2,5-dihydro-1H-pyrrol-3-yl)-3-((methylsulfinyl)methyl)phenyl)amino)pyrazolo[1,5-a]pyrimidine-3-carbonitrile mono trifluoroacetic acid salt]: 147 to 151 °C.
Still for that read-out and setting: the same measure for `C[S+]([O-])Cc1cc(Nc2cc(NC3CC3)n3ncc(C#N)c3n2)ccc1C1CCNC1` (racemic) (as salt: trifluoroacetic acid salt) [Example 63, (±)-7-(Cyclopropylamino)-5-((3-((methylsulfinyl)methyl)-4-((R,S)-pyrrolidin-3-yl)phenyl)amino)pyrazolo[1,5-a]pyrimidine-3-carbonitrile mono trifluoroacetic acid salt]: 173 to 177 °C.
Still for that read-out and setting: the result for `CC(CCN)c1ccc(Nc2cc(NC3CC3)n3ncc(C#N)c3n2)cc1C[S+](C)[O-]` (racemic) (as salt: trifluoroacetic acid salt) [Example 64, (±)-5-((4-(R,S)-4-Aminobutan-2-yl)-3-((methylsulfinyl)methyl)phenyl)amino)-7-(cyclopropylamino)pyrazolo[1,5-a]pyrimidine-3-carbonitrile mono trifluoroacetic acid salt] reads 119 to 123 °C.
Compound `CN(CC1(N)CC1)c1ccc(Nc2cc(NC3CC3)n3ncc(C#N)c3n2)cc1C[S+](C)[O-]` (racemic) (as salt: trifluoroacetic acid salt) [Example 65, (±)-5-((4-(((1-Aminocyclopropyl)methyl)(methyl)amino)-3-((methylsulfinyl)methyl)phenyl)amino)-7-(cyclopropylamino)pyrazolo[1,5-a]pyrimidine-3-carbonitrile mono trifluoroacetic acid salt] yielded a melting point of 126 to 130 °C.
`CN(CC(C)(C)N)c1ccc(Nc2cc(NC3CC3)n3ncc(C#N)c3n2)cc1C[S+](C)[O-]` (racemic) (as salt: trifluoroacetic acid salt) [Example 67, (±)-5-((4-((2-Amino-2-methylpropyl)(methyl)amino)-3-((methylsulfinyl)methyl)phenyl)amino)-7-(cyclopropylamino)pyrazolo[1,5-a]pyrimidine-3-carbonitrile mono trifluoroacetic acid salt] came in with a melting point of 141 to 145 °C.
As for `COc1ccc(Nc2cc(NC3CC3)n3ncc(C#N)c3n2)cc1C[S+](C)[O-]` (racemic) [Example 17, (±)-7-(Cyclopropylamino)-5-((4-methoxy-3-((methylsulfinyl)methyl)phenyl)amino)pyrazolo[1,5-a]pyrimidine-3-carbonitrile], the melting point was 227 to 229 °C. Besides, the Ki in data set [1] was under 2.5 nM.
For `C[S+]([O-])Cc1cc(Nc2cc(NC3CC3)n3ncc(C#N)c3n2)ccc1OC(F)F` (racemic) [Example 19, (±)-7-(Cyclopropylamino)-5-((4-(difluoromethoxy)-3-((methylsulfinyl)methyl)phenyl)amino)pyrazolo[1,5-a]pyrimidine-3-carbonitrile] the same measures were 233 to 235 °C and under 2.5 nM.
For `C[S+]([O-])Cc1cc(Nc2cc(NC3CC3)n3ncc(C#N)c3n2)ccc1OCCN` (racemic) [Example 31, (±)-5-((4-(2-aminoethoxy)-3-((methylsulfinyl)methyl)phenyl)amino)-7-(cyclopropylamino)pyrazolo[1,5-a]pyrimidine-3-carbonitrile] the same measures were 206 to 208 °C and under 2.5 nM.
For `CN(C)c1ccc(Nc2cc(NC3CC3)n3ncc(C#N)c3n2)cc1C[S+](C)[O-]` (racemic) [Example 33, (±)-7-(Cyclopropylamino)-5-((4-(dimethylamino)-3-((methylsulfinyl)methyl)phenyl)amino)pyrazolo[1,5-a]pyrimidine-3-carbonitrile] the same measures were 229 to 233 °C and under 2.5 nM.
On to `C[S+]([O-])Cc1cc(Nc2cc(NC3CC3)n3ncc(C#N)c3n2)ccc1N1CCC1` (racemic) [Example 37, (±)-5-((4-(Azetidin-1-yl)-3-((methylsulfinyl)methyl)phenyl)amino)-7-(cyclopropylamino)pyrazolo[1,5-a]pyrimidine-3-carbonitrile], for which the melting point was 204 to 207 °C. In data set [1], the inhibition constant Ki was under 2.5 nM.
